Laboratory results published in patent US6852328B1, “Method and device for protection of wooden objects proximate soil from pest invasion” (priority 1989, dated 2005).

What was measured:
Type in all cases: physicochemical
[1] = Release rates of pesticide/polymer combinations, one inch squares cut from 1/8 inch sheets (Example 1); conditions: 10% pesticide
Text: The following controlled release devices were made and tested to obtain their release rates (Table 1). The devices were made as follows. All devices, except for those employing S-113 urethane, were injection molded into a thin sheet about ⅛ inch thick. The device employing S-113 urethane was case, a method typically used for thermoset polymers. All thermoplastics were formulated using sufficient amount of carbon black to carry pesticides. All thermoplastic polymers were formulated with 10 percent pesticide, 3 or 7 percent carbon black to absorb liquid pesticide and 87 to 83 percent by weight of polymer. Specifically, devices made from thermoplastic polymers and deltamethrin and lambdacyhalothrin contained 3 percent of carbon black. The devices made from the remaining pesticides and thermoplastic polymers contained 7 percent of carbon black.
The devices made from S-113 urethane (a thermoset polymer) were made from a polymer mix containing 60% S-113, 40% castor oil, and 5% of TIPA catalyst by weight. The polymer mix comprised 90% of the total weight of the device. The pesticide, deltamethrin, comprised the remaining 10% of the device. No carbon black was used in this device. The polymer/pesticide mixture was cast, using a spin caster into a ⅛ inch thick sheet and heated at about 60° C. for about 40 to 60 minutes to cure the cast sheet.
One inch squares were then cut from the thin sheets that were injection molded or cast, and the squares were tested for release rates as shown in Table 1.

[2] = Release rate and longevity of high density polyethylene sheets as a function of thickness and temperature (Example 2); conditions: 10 wt % pesticide, 10 wt % carrier; for Longevity @ 23° C. / Longevity @ 35° C.: 80 wt % HDPE; for Release Rate @ 23° C.: sheet, 80 wt % high density polyethylene (MA 778000), 60 mil
Text: Controlled release devices in the form of sheets are made having 10% wt % pesticide, 10 wt % carrier and 80 wt % high density polyethylene (MA 778000).

[3] = Release rate and longevity of encapsulated two-part construction (Example 3); conditions: two-part device about 100 g, inner part 60 wt % pesticide, 40 wt % carrier, outer part HDPE 120 mil
Text: A device having an inner part surrounded by or encapsulated by an outer part is constructed having an overall mass of about 100 g. The inner part contains 60 wt % pesticide and 40 wt % carrier. The outer part is high density polyethylene of a thickness of 120 mil.

[4] = Release rate and longevity of pellet (Example 4); conditions: pellet about 100 g, about 150 cm^2, 70 wt % HDPE, 20 wt % pesticide, 10 wt % carrier
Text: A pellet is made having a mass of about 100 g and a surface area of about 150 cm^2. The polymer is 70 wt % high density polyethylene, with 20 wt % pesticide and 10 wt % carrier. Comparing Table 4 to Table 3, it is evident that the encapsulated two-part construction provides longer life than the pellet.

[5] = polymer EVA 763, injection molded 1/8 inch sheet, 3 or 7% carbon black
[6] = polymer Polyethylene MA78000, injection molded 1/8 inch sheet, 3 or 7% carbon black
[7] = polymer polyurethane 2200, injection molded 1/8 inch sheet, 3 or 7% carbon black
[8] = polymer polyurethane 3100, injection molded 1/8 inch sheet, 3 or 7% carbon black

Q: What does the source list for `Cc1c(F)c(F)c(COC(=O)[C@@H]2[C@H](/C=C(\Cl)C(F)(F)F)C2(C)C)c(F)c1F` (racemic) [Tefluthrin]?
A: Release Rate [1, 5]: 40.4 μg/cm2/day; Release Rate [1, 6]: 27.0 μg/cm2/day; Release Rate [1, 7]: 25.0 μg/cm2/day; Release Rate [1, 8]: 6.4 μg/cm2/day; Longevity @ 23° C. ([2]; sheet thickness 60 mil): 9.1 years; Longevity @ 35° C. ([2]; sheet thickness 60 mil): 3.1 years; Longevity @ 23° C. ([2]; sheet thickness 120 mil): 18.2 years; Longevity @ 35° C. ([2]; sheet thickness 120 mil): 5.9 years; Longevity @ 23° C. ([2]; sheet thickness 240 mil): 39 years; Longevity @ 35° C. ([2]; sheet thickness 240 mil): 10.4 years; Release Rate @ 23° C. [2]: 1.3 μg/cm^2/day; Longevity @ 23° C. [3]: 35 years; Release Rate @ 23° C. [3]: 31 μg/cm^2/day; Longevity @ 35° C. [3]: 18 years; Longevity @ 23° C. [4]: 33 years; Release Rate @ 23° C. [4]: 11 μg/cm^2/day; Longevity @ 35° C. [4]: 16 years

Q: With `c1ccc(-c2ccccc2)cc1` [Biphenyl] as the molecule, how does the “Longevity @ 23° C.” value ([2]; sheet thickness 60 mil) read?
A: Its value is 2.5 years.

Q: What about the “Longevity @ 35° C.” value ([2]; sheet thickness 60 mil) of the same molecule?
A: Its value is 2.1 years.

Q: What about the “Longevity @ 23° C.” value ([2]; sheet thickness 120 mil) of the same molecule?
A: The value was 5.1 years.

Q: What about the “Longevity @ 35° C.” value ([2]; sheet thickness 120 mil) of the same molecule?
A: Its value is 4.4 years.

Q: What about the “Longevity @ 23° C.” value ([2]; sheet thickness 240 mil) of the same molecule?
A: Its value is 11.2 years.

Q: What about the “Longevity @ 35° C.” value ([2]; sheet thickness 240 mil) of the same molecule?
A: Its value is 9.1 years.

Q: What about the “Release Rate @ 23° C.” value [2] of the same molecule?
A: Its value is 3.5 μg/cm^2/day.

Q: And the “Longevity @ 23° C.” value [3]?
A: Its value is 31 years.

Q: What about the “Release Rate @ 23° C.” value [3] of the same molecule?
A: The value was 35 μg/cm^2/day.

Q: What about the “Longevity @ 35° C.” value [3] of the same molecule?
A: Its value is 23 years.

Q: And the “Longevity @ 23° C.” value [4]?
A: Its value is 22 years.

Q: What about the “Release Rate @ 23° C.” value [4] of the same molecule?
A: Its value is 16 μg/cm^2/day.

Q: What about the “Longevity @ 35° C.” value [4] of the same molecule?
A: Its value is 11 years.

Q: For `CC1(C)C(C=C(Cl)Cl)C1C(=O)OC(C#N)c1cccc(Oc2ccccc2)c1` (stereo not drawn) [Cypermethrin], which “Release Rate” value [1, 5] is on record?
A: The value was 27.3 μg/cm2/day.

Q: And the “Release Rate” value [1, 6]?
A: Its value is 4.6 μg/cm2/day.

Q: What about the “Release Rate” value [1, 7] of the same molecule?
A: The value was 0.7 μg/cm2/day.

Q: What about the “Release Rate” value [1, 8] of the same molecule?
A: The value was 0.4 μg/cm2/day.

Q: With `CC1(C)[C@H](C(=O)O[C@H](C#N)c2cccc(Oc3ccccc3)c2)[C@@H]1C=C(Br)Br` [Deltamethrin] as the molecule, how does the “Release Rate” value ([1]; polymer Alipmtic PS-49-100, injection molded 1/8 inch sheet, 3% carbon black) read?
A: The value was 7.2 μg/cm2/day.

Q: And the “Release Rate” value ([1]; polymer Aromatic 80A, injection molded 1/8 inch sheet, 3% carbon black)?
A: Its value is 16.8 μg/cm2/day.

Q: What about the “Release Rate” value ([1]; polymer S-113 urethane (thermoset), cast 1/8 inch sheet, no carbon black) of the same molecule?
A: The value was 25.2 μg/cm2/day.

Q: What about the “Release Rate” value ([1]; polymer pellethane 2102-55D, injection molded 1/8 inch sheet, 3% carbon black) of the same molecule?
A: The value was 8.0 μg/cm2/day.

Q: What about the “Release Rate” value ([1]; polymer pellethane 2102-80A, injection molded 1/8 inch sheet, 3% carbon black) of the same molecule?
A: Its value is 8.8 μg/cm2/day.

Q: With `CCOP(=S)(OCC)Oc1cc(C)nc(C(C)C)n1` [Diazinon] as the molecule, how does the “Longevity @ 23° C.” value ([2]; sheet thickness 60 mil) read?
A: Its value is 1.1 years.

Q: What about the “Longevity @ 35° C.” value ([2]; sheet thickness 60 mil) of the same molecule?
A: Its value is 0.6 years.

Q: What about the “Longevity @ 23° C.” value ([2]; sheet thickness 120 mil) of the same molecule?
A: The value was 2.3 years.

Q: And the “Longevity @ 35° C.” value ([2]; sheet thickness 120 mil)?
A: The value was 1.3 years.

Q: What about the “Longevity @ 23° C.” value ([2]; sheet thickness 240 mil) of the same molecule?
A: The value was 4.8 years.

Q: What about the “Longevity @ 35° C.” value ([2]; sheet thickness 240 mil) of the same molecule?
A: The value was 2.7 years.

Q: What about the “Release Rate @ 23° C.” value [2] of the same molecule?
A: Its value is 11.7 μg/cm^2/day.

Q: What about the “Longevity @ 23° C.” value [3] of the same molecule?
A: Its value is 39 years.

Q: What about the “Release Rate @ 23° C.” value [3] of the same molecule?
A: Its value is 28 μg/cm^2/day.

Q: What about the “Longevity @ 35° C.” value [3] of the same molecule?
A: Its value is 24 years.

Q: And the “Longevity @ 23° C.” value [4]?
A: Its value is 8.1 years.

Q: What about the “Release Rate @ 23° C.” value [4] of the same molecule?
A: Its value is 45 μg/cm^2/day.

Q: What about the “Longevity @ 35° C.” value [4] of the same molecule?
A: Its value is 5.1 years.

Q: Which “Release Rate” value [1, 6] does the source give for `Oc1ccc(Cl)cc1Cc1cc(Cl)ccc1O` [Dichlorophen] here?
A: Its value is 6.2 μg/cm2/day.

Q: What about the “Longevity @ 23° C.” value ([2]; sheet thickness 60 mil) of the same molecule?
A: The value was 1.6 years.

Q: What about the “Longevity @ 35° C.” value ([2]; sheet thickness 60 mil) of the same molecule?
A: Its value is 1.4 years.

Q: What about the “Longevity @ 23° C.” value ([2]; sheet thickness 120 mil) of the same molecule?
A: Its value is 3.3 years.

Q: And the “Longevity @ 35° C.” value ([2]; sheet thickness 120 mil)?
A: Its value is 3.0 years.

Q: What about the “Longevity @ 23° C.” value ([2]; sheet thickness 240 mil) of the same molecule?
A: The value was 6.8 years.

Q: And the “Longevity @ 35° C.” value ([2]; sheet thickness 240 mil)?
A: The value was 6.4 years.

Q: And the “Release Rate @ 23° C.” value [2]?
A: Its value is 6.2 μg/cm^2/day.

Q: And the “Longevity @ 23° C.” value [3]?
A: The value was 56 years.

Q: And the “Release Rate @ 23° C.” value [3]?
A: Its value is 24 μg/cm^2/day.

Q: What about the “Longevity @ 35° C.” value [3] of the same molecule?
A: Its value is 28 years.

Q: And the “Longevity @ 23° C.” value [4]?
A: Its value is 33 years.

Q: What about the “Release Rate @ 23° C.” value [4] of the same molecule?
A: The value was 11 μg/cm^2/day.

Q: What about the “Longevity @ 35° C.” value [4] of the same molecule?
A: Its value is 16 years.

Q: With `CC1(C)[C@H](C(=O)O[C@H](C#N)c2cccc(Oc3ccccc3)c2)[C@@H]1/C=C(\Cl)C(F)(F)F` [Lambdacyhalothrin] as the molecule, how does the “Release Rate” value [1, 5] read?
A: Its value is 20.6 μg/cm2/day.

Q: And the “Release Rate” value [1, 6]?
A: Its value is 5.2 μg/cm2/day.

Q: What about the “Release Rate” value [1, 7] of the same molecule?
A: Its value is 2.0 μg/cm2/day.

Q: What about the “Release Rate” value [1, 8] of the same molecule?
A: Its value is 0.7 μg/cm2/day.

Q: For `CC1(C)C(C=C(Cl)Cl)C1C(=O)OCc1cccc(Oc2ccccc2)c1` (stereo not drawn) [Permethrin], which “Release Rate” value [1, 5] is on record?
A: Its value is 28.5 μg/cm2/day.

Q: And the “Release Rate” value [1, 6]?
A: The value was 4.0 μg/cm2/day.

Q: And the “Release Rate” value [1, 7]?
A: The value was 1.3 μg/cm2/day.

Q: What about the “Release Rate” value [1, 8] of the same molecule?
A: The value was 1.4 μg/cm2/day.

Q: And the “Longevity @ 23° C.” value ([2]; sheet thickness 60 mil)?
A: Its value is 8.6 years.

Q: And the “Longevity @ 35° C.” value ([2]; sheet thickness 60 mil)?
A: Its value is 3.2 years.

Q: And the “Longevity @ 23° C.” value ([2]; sheet thickness 120 mil)?
A: The value was 17 years.

Q: And the “Longevity @ 35° C.” value ([2]; sheet thickness 120 mil)?
A: Its value is 6.5 years.

Q: What about the “Longevity @ 23° C.” value ([2]; sheet thickness 240 mil) of the same molecule?
A: Its value is 35 years.

Q: And the “Longevity @ 35° C.” value ([2]; sheet thickness 240 mil)?
A: Its value is 13 years.

Q: And the “Release Rate @ 23° C.” value [2]?
A: The value was 1.5 μg/cm^2/day.

Q: And the “Longevity @ 23° C.” value [3]?
A: Its value is 68 years.

Q: What about the “Release Rate @ 23° C.” value [3] of the same molecule?
A: The value was 16 μg/cm^2/day.

Q: What about the “Longevity @ 35° C.” value [3] of the same molecule?
A: Its value is 38 years.

Q: And the “Longevity @ 23° C.” value [4]?
A: Its value is 30 years.

Q: What about the “Release Rate @ 23° C.” value [4] of the same molecule?
A: The value was 12 μg/cm^2/day.

Q: What about the “Longevity @ 35° C.” value [4] of the same molecule?
A: The value was 14 years.
